Patent publication US12116357B2, “Heteroaryl-triazole and heteroaryl-tetrazole compounds as pesticides” (Bayer Aktiengesellschaft, priority 2018, dated 2024)

How the values were obtained:
Assay type in all cases: in vivo
[1] = test system: Nilaparvata lugens; experiment: Nilaparvata lugens spray test; conditions: 96 h
Summary of the method: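 Rice plants were sprayed with compound formulated in acetone/dimethylformamide and diluted in water containing alkylarylpolyglycol ether emulsifier, then infested with brown planthoppers. Percent mortality was scored after 4 days, where 100% means all insects killed.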

[2] = test system: Phaedon cochleariae; experiment: Phaedon cochleariae spray test; conditions: 168 h, after 7 days
Summary of the method: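 Chinese cabbage leaf disks sprayed with compound in acetone/DMF diluted in water with 1000 ppm alkylarylpolyglycol ether emulsifier, then infested with mustard beetle larvae once dry. Mortality (%) scored after 7 days; 100% = all larvae killed, 0% = none.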

[3] = test system: Rhipicephalus sanguineus; experiment: Rhipicephalus sanguineus in-vitro contact test, adult brown dog ticks
Experimental: (§1) 9 mg compound is solved in 1 ml acetone and diluted with acetone to the desired concentration. 250 μl of the test solution is filled in 25 ml glass test tubes and homogeneously distributed on the inner walls by rotation and tilting on a shaking device (2 h at 30 rpm). With a compound concentration of 900 ppm, an inner surface of 44.7 cm^2 and a homogeneous distribution, a dose of 5 μg/cm^2 is achieved.
After the solvent has evaporated, each test tube is filled with 5-10 adult brown dog ticks (Rhipicephalus sanguineus), closed with a perforated lid and incubated in a lying position at room temperature and relative humidity. After 48 hours efficacy is determined. The ticks are patted on the ground of the tubes and are incubated on a heating plate at 45-50° C. for at most 5 minutes. Immotile or uncoordinated moving ticks, which are not able to escape the heat by climbing upwards, are marked as dead or moribund.
An efficacy of 100% means all ticks are dead or moribund; 0% means no ticks are dead or moribund.

[4] = test system: Tetranychus urticae (OP-Resistant); experiment: Tetranychus urticae (OP-resistant) spray test; conditions: 144 h, after 6 days
Experimental: (§2) • Solvent: 78.0 parts by weight acetone • 1.5 parts by weight dimethylformamide • Emulsifier: alkylarylpolyglycol ether
(§3) To produce a suitable preparation of active compound, 1 part by weight of active compound is mixed with the stated amount of solvents and is diluted with water, containing an emulsifier concentration of 1000 ppm, to the desired concentration. Further test concentrations are prepared by dilution with emulsifier containing water.
French bean (Phaseolus vulgaris) leaf disks infected with all instars of the two spotted spidermite (Tetranychus urticae), are sprayed with a preparation of the active ingredient of the desired concentration.
After 6 days mortality in % is determined. 100% means all spider mites have been killed and 0% means none of the spider mites have been killed.

[5] = test system: Spodoptera frugiperda; experiment: Spodoptera frugiperda spray test; conditions: 168 h
Summary of the method: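 Maize leaf sections were sprayed with compound formulated in acetone/DMF and diluted in water containing 1000 ppm emulsifier, then infested with fall armyworm larvae once dry. Percent mortality was scored after 7 days.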

[6] = test system: Ctenocephalides felis; experiment: Ctenocephalides felis in-vitro contact test, adult cat flea; conditions: 5 μg/cm^2, after 48 hours, read-out: efficacy (fleas dead or moribund)
Experimental: as §1
After the solvent has evaporated, each test tube is filled with 5-10 adult cat fleas (Ctenocephalides felis), closed with a perforated lid and incubated in a lying position at room temperature and relative humidity. After 48 hours efficacy is determined. The fleas are patted on the ground of the tubes and are incubated on a heating plate at 45-50° C. for at most 5 minutes. Immotile or uncoordinated moving fleas, which are not able to escape the heat by climbing upwards, are marked as dead or moribund.
An efficacy of 100% means all fleas are dead or moribund; 0% means no fleas are dead or moribund.

[7] = test system: Myzus persicae; experiment: Myzus persicae oral test; conditions: 120 h
Summary of the method: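 Mixed-population aphids feed through parafilm on compound solution (acetone concentrate diluted with water) combined with IPL41 insect medium (33%+15% sugar). Mortality (%) read after 5 days, 100% meaning all aphids killed.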

[8] = test system: Ctenocephalides felis; experiment: Ctenocephalides felis oral test; conditions: 48 h, 100 ppm in cattle blood, after 2 days
Summary of the method: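 Adult unfed cat fleas (~20) fed through parafilm on cattle blood containing compound (DMSO concentrate diluted in blood); blood held at 37° C., fleas at room temperature. Mortality (%) scored after 2 days.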

[9] = test system: Boophilus microplus; experiment: Boophilus microplus injection test; conditions: Rhipicephalus microplus, 168 h, 20 μg/animal, egg deposition after 7 days, read-out: efficacy (infertile eggs)
Summary of the method: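 Engorged adult female ticks, five per test, received a 1 μl abdominal injection of compound in DMSO, then were kept in a climate chamber. Fertile egg deposition checked after 7 days, with unclear eggs held until hatching at about 42 days. Efficacy 100% means all eggs infertile, 0% all fertile.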

[10] = test system: Musca domestica strain WHO-N; experiment: Musca domestica test (surface treatment & contact assay); conditions: 24 hours after contact, read-out: efficacy (mortality); for mortality at 4 mg/m2: surface concentration 4 mg/m^2, 30 min exposure; for mortality at 20 mg/m2: surface concentration 20 mg/m^2, 30 min exposure
Summary of the method: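 Test compound dissolved in acetone (2 mg/ml) with 2000 ppm RME, applied to glazed tile and acetone evaporated. Adult flies placed on dried surface for 30 min exposure. Mortality (%) scored 24 h after contact; 100% means all insects dead.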

[11] = test system: Aedes aegypti strain MONHEIM; experiment: Aedes aegypti test (surface treatment & contact assay); conditions: 24 hours after contact, read-out: efficacy (mortality); for mortality at 20 mg/m2: surface concentration 20 mg/m^2, 30 min exposure; for mortality at 4 mg/m2: surface concentration 4 mg/m^2, 30 min exposure
Summary of the method: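 Compound dissolved in acetone (2 mg/ml) with 2000 ppm rapeseed oil methyl ester, applied to glazed tile and acetone evaporated; adult mosquitoes exposed on the dried surface for 30 min. Percent mortality scored 24 h after contact.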

[12] = test system: Myzus persicae; experiment: Myzus persicae spray test; conditions: 120 h
Experimental: as §2, §3
Chinese cabbage (Brassica pekinensis) leaf disks infected with all instars of the green peach aphid (Myzus persicae), are sprayed with a preparation of the active ingredient of the desired concentration.
After 5 days mortality in % is determined. 100% means all aphids have been killed and 0% means none of the aphids have been killed.

[13] = test system: Blattella germanica strain PAULINIA; experiment: Blattella germanica test (surface treatment & contact assay); conditions: 24 hours after contact, read-out: efficacy (mortality); for mortality at 20 mg/m2: surface concentration 20 mg/m^2, 30 min exposure
Experimental: (§4) • Solvent: Aceton+2000 ppm rapeseed oil methyl ester (RME)
In order to produce a sufficient, active ingredient containing solution it is necessary to solve the test compound in the solvent-mix (acetone at 2 mg/ml/RME 2000 ppm). This solution is pipetted onto a glazed tile and after evaporation of the acetone, adult animals of the species Blattella germanica strain […] are placed onto the dried surface. The exposure time is 30 minutes.
(§5) Mortality in percent (%) is determined 24 hours after contact of the insects to the treated surface. 100% mortality means that all tested insects are dead, whereas 0% means that no insect died.

[14] = test system: Nezara viridula; experiment: Nezara viridula spray test; conditions: 96 h
Summary of the method: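 Barley plants infested with N. viridula larvae sprayed with compound in acetone/DMF diluted in water with 1000 ppm emulsifier at the desired concentration. Mortality (%) scored after 4 days; 100% means all bugs killed.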

[15] = test system: Anopheles funestus strain FUMOZ-R; experiment: Anopheles funestus test (surface treatment & contact assay); conditions: 24 hours after contact, read-out: efficacy (mortality); for mortality at 4 mg/m2: surface concentration 4 mg/m^2, 30 min exposure; for mortality at 20 mg/m2: surface concentration 20 mg/m^2, 30 min exposure
Experimental: as §4
In order to produce a sufficient, active ingredient containing solution it is necessary to solve the test compound in the solvent-mix (acetone at 2 mg/ml/RME 2000 ppm). This solution is pipetted onto a glazed tile and after evaporation of the acetone, adult mosquitoes of the species Anopheles funestus strain FUMOZ-R (Hunt et al., Med. Vet. Entomol. 2005 September; 19(3): 271-275) are placed onto the dried surface. The exposure time is 30 minutes.
as §5

[16] = test system: Culex quinquefasciatus strain P00; experiment: Culex quinquefasciatus test (surface treatment & contact assay); conditions: 24 hours after contact, read-out: efficacy (mortality); for mortality at 4 mg/m2: surface concentration 4 mg/m^2, 30 min exposure; for mortality at 20 mg/m2: surface concentration 20 mg/m^2, 30 min exposure
Experimental: as §4
In order to produce a sufficient, active ingredient containing solution it is necessary to solve the test compound in the solvent-mix (acetone at 2 mg/ml/RME 2000 ppm). This solution is pipetted onto a glazed tile and after evaporation of the acetone, adult mosquitoes of the species Culex quinquefasciatus strain P00 are placed onto the dried surface. The exposure time is 30 minutes.
as §5

Compound | mortality at 500 g/ha [1] | mortality at 500 g/ha [2] | efficacy (ticks dead or moribund) ([3]; 1 μg/cm^2, after 48 hours) | mortality at 500 g/ha [4] | mortality at 500 g/ha [5] | pest or weed control at 5 µg/cm2 [6] | mortality at 4 ppm [7] | mortality at 20 ppm [7] | mortality at 100 ppm [8] | pest or weed control at 0.02 mg [9] | mortality at 4 mg/m2 [10] | mortality at 20 mg/m2 [10] | mortality at 20 mg/m2 [11] | mortality at 500 g/ha [14] | mortality at 20 mg/m2 [15] | other results
CCOCN(C(=O)c1cc(Cl)cc(C(F)(F)F)c1)C(C)c1ncnn1-c1ncccn1 (stereo not shown) [Example I-013, 3-Chloro-N-(ethoxymethyl)-N-{1-[1-(pyrimidin-2-yl)-1H-1,2,4-triazol-5-yl]ethyl}-5-(trifluoromethyl)benzamide] | 100% | 100% | 100% | 80% | 100% | 100% | 100% | 100% | 100% | 100% | – | – | – | – | – | efficacy (ticks dead or moribund) ([3]; 5 μg/cm^2, after 48 hours): 100%
CC(c1ncnn1-c1ncccn1)N(CC1CS(=O)(=O)C1)C(=O)c1cc(Cl)cc(C(F)(F)F)c1 (stereo not shown) [Example I-004] | 100% | 100% | – | – | 100% | – | 100% | 100% | 100% | 100% | 90 to 100% | 90 to 100% | 90 to 100% | 100% | – | mortality at 500 g/ha [12]: 100%; mortality at 4 mg/m2 ([13]; surface concentration 4 mg/m^2, 30 min exposure): 80 to 100%; mortality at 20 mg/m2 [13]: 80 to 100%
CON(C(=O)c1cc(Cl)cc(C(F)(F)F)c1)C(C)c1ncnn1-c1ncccn1 (stereo not shown) [Example I-026] | – | 100% | – | 90% | 100% | – | 100% | 100% | 100% | 100% | – | – | – | 100% | – | –
CSCCN(C(=O)c1cc(Cl)cc(C(F)(F)F)c1)C(C)c1ncnn1-c1ncccn1 (stereo not shown) [Example I-017] | 100% | 100% | 80% | – | 100% | 100% | 100% | 100% | 100% | 100% | 90 to 100% | 90 to 100% | 90 to 100% | 100% | 85 to 100% | mortality at 4 mg/m2 [15]: 85 to 100%; efficacy (ticks dead or moribund) ([3]; 5 μg/cm^2, after 48 hours): 100%; mortality at 4 mg/m2 [11]: 80 to 100%; mortality at 4 mg/m2 [16]: 85 to 100%; mortality at 20 mg/m2 [16]: 90 to 100%
CCON(C(=O)c1cc(Cl)cc(C(F)(F)F)c1)C(C)c1ncnn1-c1ncccn1 (stereo not shown) [Example I-027] | – | 100% | 100% | 80% | – | 100% | 100% | 100% | 100% | 100% | – | – | – | 100% | 85 to 100% | mortality at 4 mg/m2 [15]: 85 to 100%
CSCCN(C(=O)c1cc(Cl)cc(S(C)(=O)=O)c1)C(C)c1ncnn1-c1ccc(C#N)cn1 (stereo not shown) [Example I-035] | 90% | – | – | 90% | 100% | 100% | 100% | – | – | – | 90 to 100% | 90 to 100% | 90 to 100% | 100% | 85 to 100% | mortality at 500 g/ha [12]: 90%; mortality at 4 mg/m2 [16]: 85 to 100%; mortality at 20 mg/m2 [16]: 90 to 100%
CC(c1ncnn1-c1ncccn1)N(C(=O)c1cc(Cl)cc(C(F)(F)F)c1)C1COC1 (stereo not shown) [Example I-021] | – | 100% | – | – | 83% | 100% | 100% | 100% | 100% | 100% | – | 90 to 100% | 90 to 100% | 100% | – | mortality at 4 mg/m2 [11]: 80 to 100%; mortality at 20 mg/m2 [13]: 80 to 100%
